From patent publication US20230310431A1, “COMPOSITION FOR PREVENTING OR TREATING LIVER FIBROSIS, CONTAINING TRIAZOLE DERIVATIVE AS ACTIVE INGREDIENT” (INDUSTRY-ACADEMIC COOPERATION FOUNDTION, YONSEI UNIVERSITY, priority 2020, published 2023)

Experiments:
[1] = test system: fatty liver mouse model; test: Measurement of liver weight change in fatty liver mouse model; assay type: in vivo, C57BL/6 mice; conditions: 50 mg/kg oral twice a week for 7 weeks, FIG. 3
Experimental: (§1) Twenty-four 6-week-old C57BL/6 mice were acclimated for 1 week and then divided into two groups. One group (12 mice) was fed a normal diet, and the other group (12 mice) was fed a high-fat diet for 9 weeks. After 9 weeks, each of the normal diet group and the high-fat diet group was subdivided into two groups, and each of vehicle and 50 mg/kg of ML323 was orally administered thereto twice a week for 7 weeks. Normal diet and high-fat diet were continued during oral administration.
After the experimental period was over, mice were sacrificed, and liver tissues were harvested and weighed.

[2] = test system: CCL2; test: Expression of inflammatory factors in liver tissue (real-time PCR): CCL2; assay type: in vivo, C57BL/6 mice; conditions: high-fat diet group, 50 mg/kg oral, versus control group, FIG. 5B
Experimental: as §1
(§2) The tissue harvested from each mouse was added to 1 ml of Easy blue (Intron) and then minced using a homogenizer. 200 μl of chloroform was added to and mixed well with the tissue, and the mixture was incubated for 3 minutes and then centrifuged at 13,200 rpm for 15 minutes at 4° C. After centrifugation, only the supernatant was transferred to a fresh tube, and the same amount of isopropyl alcohol was added thereto and mixed well therewith. After incubation for 10 minutes, centrifugation was performed at 13,200 rpm for 10 minutes at 4° C. After removing the supernatant, the RNA pellet was washed with 70% ethanol and centrifuged at 13,200 rpm for 5 minutes at 4° C. […]
(§3) cDNA was synthesized from the extracted RNA using ReverTraAce RT master mix (TOYOBO), and then gene expression changes were measured using a real-time PCR system (ABI).

[3] = test system: fatty liver mouse model; test: Measurement of liver function indicators (AST, ALT) in blood; assay type: in vivo, C57BL/6 mice; conditions: high-fat diet group, 50 mg/kg oral twice a week for 7 weeks, versus vehicle-administered control group, FIG. 4
Experimental: as §1
After the experimental period was over, blood was collected from each mouse, and after 30 minutes, the supernatant (plasma) was separated from the blood by centrifugation at 2,000 rpm for 15 minutes. The separated plasma was analyzed by Seoul Clinical Laboratories (SCL) to measure the levels of AST and ALT, which are indicators of liver function.

[4] = test system: COL1A1; test: Expression of hepatic fibrosis inducers in liver tissue (real-time PCR): COL1A1; assay type: in vivo, C57BL/6 mice; conditions: high-fat diet group, 50 mg/kg oral, FIG. 5A
Experimental: as §1, §2, §3

[5] = test system: F4/80; test: Expression of inflammatory factors in liver tissue (real-time PCR): F4/80; assay type: in vivo, C57BL/6 mice; conditions: high-fat diet group, 50 mg/kg oral, versus control group, FIG. 5B
Experimental: as §1, §2, §3

[6] = test system: TGF-β; test: Expression of inflammatory factors in liver tissue (real-time PCR): TGF-β; assay type: in vivo, C57BL/6 mice; conditions: high-fat diet group, 50 mg/kg oral, versus control group, FIG. 5B
Experimental: as §1, §2, §3

[7] = test system: COL1A1; test: Measurement of cell fibrosis: COL1A1 mRNA in TGF-β-activated LX-2 cells; assay type: cell-based, Human; conditions: TGF-β 2.5 ng/ml, ML323 1, 10, 25 μM, 24 hours, versus cells not treated with ML323, FIG. 2
Experimental: Human hepatic stellate LX-2 cells were seeded in a 6-well plate with DMEM (Welgene) containing 2% fetal bovine serum (Gibco) and 1% penicillin-streptomycin (Gibco), and cultured in an incubator for 24 hours at 37° C. under 5% CO2. Thereafter, the medium was replaced with serum-free DMEM, and the cells were starved for 24 hours. Next, the cells were activated by treatment with TGF-β at a concentration of 2.5 ng/ml, and at the same time, the cells were treated with ML323 at concentrations of 0, 1, 10 and 25 μM. After 24 hours, the cells were harvested and used for gene expression analysis.
as §3

[8] = test system: Human hepatic stellate LX-2 cells; test: Cytotoxicity measurement (WST assay); assay type: cell-based; conditions: 48 hours
Experimental: Human hepatic stellate LX-2 cells were seeded in a 96-well plate with DMEM (Welgene) containing 2% fetal bovine serum (Gibco) and 1% penicillin-streptomycin (Gibco), and cultured in an incubator for 24 hours at 37° C. under 5% CO2. Next, the cells were treated with ML323 at concentrations of 0, 1, 5, 10 and 25 μM. After 48 hours, 10 μl of EZ-Cytox was added to the cell culture medium and reacted for 30 minutes, and the absorbance at 450 nm was measured using a microplate reader.
Cytotoxicity measurement (WST assay)

[9] = test system: CDAA diet mice; test: Immunohistochemical analysis of liver tissue (H&E, F4/80, a-SMA), CDAA diet non-alcoholic fatty liver model; assay type: in vivo, C57BL/6 mice; conditions: CDAA diet group, 50 mg/kg oral, FIG. 7
Experimental: In addition, ten 6-week-old C57BL/6 mice were acclimated for 1 week and then fed CDAA (choline-deficient L-amino-defined) for 8 weeks to induce non-alcoholic fatty liver. Thereafter, the 10 mice were divided into two groups, to which a vehicle and 50 mg/kg of ML-323 were orally administered, respectively, and then liver tissues were stained with H&E, F4/80, and a-SMA.

[10] = test system: fatty liver mouse model; test: Immunohistochemical analysis of liver tissue (Sirius red, a-SMA), fatty liver mouse model; assay type: in vivo, C57BL/6 mice; conditions: 50 mg/kg oral, FIG. 6
Experimental: as §1
The liver tissue harvested from each mouse was fixed in a 10% formalin solution, and a paraffin block and a slide were prepared using each liver tissue that had been fixed. The degree of fibrosis in liver tissue was measured using Sirius red solution staining and a-SMA immunostaining.

Cc1cnc(-c2ccccc2C(C)C)nc1NCc1ccc(-n2ccnn2)cc1 [ML323, N-(4-(1H-1,2,3-triazol-1-yl)benzyl)-2-(24 sopropylphenyl)-5-methylpyrimidin-4-amine]
liver weight ([1]; high-fat diet group): decreased
accumulation of fat in liver tissue ([1]; high-fat diet group, versus control group): significantly decreased
liver weight or size ([1]; normal diet group, versus control group): no significant difference in liver weight or size
mRNA expression level of CCL2 in liver tissue [2]: significantly decreased
decrease of ALT level in the blood [3]: 70%
decrease of AST level in the blood [3]: 40%
mRNA expression level of the COL1A1 gene in liver tissue [4]: greatly decreased
mRNA expression level of F4/80 in liver tissue [5]: significantly decreased
mRNA expression level of TGF-β in liver tissue [6]: significantly decreased
mRNA expression of COL1A1 [7]: significantly lower
viability of LX-2 cells versus untreated cells ([8]; 0, 1, 5, 10 and 25 μM, FIG. 1): no significant difference in viability
cytotoxicity ([8]; all treatment concentrations (up to 25 μM)): did not exhibit cytotoxicity
inflammation and hepatic fibrosis in liver tissue (H&E staining, f4/80 and a-SMA immunostaining) [9]: significantly decreased
hepatic fibrosis in liver tissue (Sirius red staining and a-SMA immunostaining) [10]: significantly decreased
